# Results published in patent publication US11123337B2, “4-methylsulfonyl-substituted piperidine urea compounds” (MYOKARDIA, INC., priority 2015, dated 2021).
# Target: bovine cardiac myosin (Bos taurus, UniProt Q9BE39)
# Test: Myosin activation assay (PK/LDH-coupled ATPase, bovine cardiac myofibrils)
# Type: biochemical
# Details: AC20 = concentration at which total response is increased by twenty percent
# Experimental: Small molecule agents were assessed for their ability to activate the enzymatic activity of bovine cardiac myosin using a biochemical assay that couples the release of ADP (adenosine diphosphate) from cardiac myosin to an enzymatic coupling system consisting of pyruvate kinase and lactate dehydrogenase (PK/LDH) and monitoring the absorbance decrease of NADH (at 340 nm) as a function of time. PK converts ADP to ATP (adenosine triphosphate) by converting PEP (phosphoenolpyruvate) to pyruvate. Pyruvate is then converted to lactate by LDH by converting NADH (nicotinamide adenine dinucleotide) to NAD (oxidized nicotinamide adenine dinucleotide). The source of cardiac myosin was from bovine heart in the form of skinned myofibrils. Prior to testing small molecule agents, the bovine myofibrils were assessed for their calcium responsiveness and the calcium concentration that achieves either a 50% (pCa50 or pCa=˜6) or <5% (pCa=10) activation of the myofibril system was chosen as the final condition for assessing the activation activity of the small molecule agents. All enzymatic activity was measured in a buffered solution containing 12 mM PIPES (piperazine-N,N′-bis(2-ethanesulfonic acid), 2 mM magnesium chloride at pH 6.8 (PM12 buffer). Final assay conditions were 1 mg/mL of bovine cardiac myofibrils, 0.4 mM PK/LDH, 50 uM ATP, 0.1 mg/mL BSA (bovine serum albumin), 10 ppm antifoam, 2 mM BME, 0.5 mM NADH, 1.5 mM PEP at the desired free calcium concentration required to achieve either 50% or <5% activation of the myofibrils.
# A dilution series of compound was created in DMSO such that the final desired concentration of compound would be achieved in a volume of […] with a fixed DMSO concentration of 3.3% (v/v). Typically a 1 μL of the dilution series was added to a 384 well plate to achieve a 10 point dose response. Following the addition of 14 μL of a solution containing bovine cardiac myofibrils, PK/LDH and a solution of calcium (that achieved the desired activation), the enzymatic reaction was started with the addition of 15 μL of a solution containing ATP, PEP and NADH. The reaction progress was followed in a PerkinElmer Envision plate reader at ambient temperature using clear bottom plates. The plate reader was configured to read absorbance at 340 nm in kinetics mode for 15 minutes. Data were recorded as the slope of the absorbance response to time. The slopes of the absorbance response as a function of time were normalized to slopes on the plate containing DMSO. This normalized rate was then plotted as a function of small molecule concentration and the data was fitted to a four-parameter fit using EXCEL XLfit. The concentration at which the total response is increased by twenty or fifty percent is reported as AC20 or AC50.
# Chain of bovine cardiac myosin (Q9BE39 whole entry): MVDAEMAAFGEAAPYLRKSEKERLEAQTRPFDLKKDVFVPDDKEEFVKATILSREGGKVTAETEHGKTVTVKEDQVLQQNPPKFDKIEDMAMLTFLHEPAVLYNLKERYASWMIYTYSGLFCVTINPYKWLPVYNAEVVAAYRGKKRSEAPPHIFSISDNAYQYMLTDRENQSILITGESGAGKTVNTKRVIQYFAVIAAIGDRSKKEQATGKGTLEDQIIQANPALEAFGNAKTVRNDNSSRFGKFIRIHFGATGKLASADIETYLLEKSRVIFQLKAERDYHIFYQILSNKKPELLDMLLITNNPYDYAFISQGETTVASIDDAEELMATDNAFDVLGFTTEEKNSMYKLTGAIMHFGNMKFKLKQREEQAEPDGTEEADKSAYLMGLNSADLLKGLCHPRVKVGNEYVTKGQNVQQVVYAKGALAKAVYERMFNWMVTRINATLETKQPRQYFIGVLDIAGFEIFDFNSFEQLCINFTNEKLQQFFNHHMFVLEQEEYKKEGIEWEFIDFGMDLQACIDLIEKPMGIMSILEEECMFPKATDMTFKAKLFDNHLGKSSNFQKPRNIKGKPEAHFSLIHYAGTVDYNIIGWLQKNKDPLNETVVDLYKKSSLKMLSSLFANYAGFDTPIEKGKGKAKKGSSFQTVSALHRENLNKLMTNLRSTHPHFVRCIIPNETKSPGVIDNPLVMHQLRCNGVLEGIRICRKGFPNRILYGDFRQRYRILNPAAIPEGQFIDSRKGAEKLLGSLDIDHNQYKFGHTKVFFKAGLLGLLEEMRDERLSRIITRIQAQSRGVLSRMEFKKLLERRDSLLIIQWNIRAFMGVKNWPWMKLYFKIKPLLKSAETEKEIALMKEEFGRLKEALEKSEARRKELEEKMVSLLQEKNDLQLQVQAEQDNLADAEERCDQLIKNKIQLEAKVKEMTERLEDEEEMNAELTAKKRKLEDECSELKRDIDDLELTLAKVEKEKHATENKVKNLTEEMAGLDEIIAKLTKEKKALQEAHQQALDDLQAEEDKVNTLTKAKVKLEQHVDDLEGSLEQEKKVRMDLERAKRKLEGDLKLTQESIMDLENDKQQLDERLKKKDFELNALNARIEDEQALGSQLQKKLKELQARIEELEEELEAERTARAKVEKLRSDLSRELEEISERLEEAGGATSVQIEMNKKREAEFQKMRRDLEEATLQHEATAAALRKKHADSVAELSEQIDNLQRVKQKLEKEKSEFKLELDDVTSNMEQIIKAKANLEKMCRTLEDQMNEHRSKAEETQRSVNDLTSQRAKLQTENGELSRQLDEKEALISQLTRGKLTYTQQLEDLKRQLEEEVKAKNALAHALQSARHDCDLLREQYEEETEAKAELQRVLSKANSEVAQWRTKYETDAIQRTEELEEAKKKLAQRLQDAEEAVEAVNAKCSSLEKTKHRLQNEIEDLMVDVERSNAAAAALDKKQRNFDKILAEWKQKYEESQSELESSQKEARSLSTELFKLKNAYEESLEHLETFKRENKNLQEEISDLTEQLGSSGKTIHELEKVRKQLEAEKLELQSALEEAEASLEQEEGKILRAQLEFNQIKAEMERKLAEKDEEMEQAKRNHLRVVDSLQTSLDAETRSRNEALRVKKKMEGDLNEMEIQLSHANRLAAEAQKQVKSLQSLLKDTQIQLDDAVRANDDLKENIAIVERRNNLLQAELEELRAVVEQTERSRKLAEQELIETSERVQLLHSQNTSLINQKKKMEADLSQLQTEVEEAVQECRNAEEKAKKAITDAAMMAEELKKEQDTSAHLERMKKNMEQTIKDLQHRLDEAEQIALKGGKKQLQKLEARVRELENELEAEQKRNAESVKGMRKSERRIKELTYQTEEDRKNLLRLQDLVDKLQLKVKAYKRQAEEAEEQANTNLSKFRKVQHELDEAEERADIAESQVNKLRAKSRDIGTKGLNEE
# Chain of bovine cardiac myosin (P85100 whole entry partner): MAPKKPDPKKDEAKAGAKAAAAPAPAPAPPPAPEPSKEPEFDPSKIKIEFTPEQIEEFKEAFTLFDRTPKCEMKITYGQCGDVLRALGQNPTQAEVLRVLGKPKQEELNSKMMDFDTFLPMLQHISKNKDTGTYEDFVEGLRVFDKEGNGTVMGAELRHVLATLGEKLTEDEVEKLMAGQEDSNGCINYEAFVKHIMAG
# Chain of bovine cardiac myosin (Q3SZE5 whole entry partner): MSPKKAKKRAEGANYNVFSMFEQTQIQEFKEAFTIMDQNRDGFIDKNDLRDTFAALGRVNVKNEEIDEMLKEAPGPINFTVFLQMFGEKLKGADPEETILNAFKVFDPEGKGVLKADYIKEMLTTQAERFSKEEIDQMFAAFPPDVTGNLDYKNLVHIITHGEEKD
row,SMILES,Myosin Activation (AC20)
1,Cn1nc(C(F)(F)F)cc1S(=O)(=O)[C@](C)(F)C1CCN(C(=O)Nc2ccon2)CC1 [Compound 229],+ (+ represents myosin activation value AC20 > 5 μM)
2,"Cn1cc(S(=O)(=O)C(C)(C)C2CCN(C(=O)Nc3ccnnc3)CC2)c(Cl)n1 [Compound 103, 4-(2-((3-chloro-1-methyl-1H-pyrazol-4-yl)sulfonyl)propan-2-yl)-N-(pyridazin-4-yl)piperidine-1-carboxamide]",++ (++ represents myosin activation value AC20 from 2 μM-5 μM)
3,"Cc1ccc(NC(=O)N2CCC(C(C)(C)S(=O)(=O)c3cccc(F)c3)CC2)nn1 [Compound 121, 4-(2-((3-fluorophenyl)sulfonyl)propan-2-yl)-N-(6-methylpyridazin-3-yl)piperidine-1-carboxamide]",+ (+ represents myosin activation value AC20 > 5 μM)
4,"Cn1cc(S(=O)(=O)C(F)(F)C2CCN(C(=O)Nc3ccnc(F)c3)CC2)c(C(F)F)n1 [Compound 79, 4-(((3-(difluoromethyl)-1-methyl-1H-pyrazol-4-yl)sulfonyl)difluoromethyl)-N-(2-fluoropyridin-4-yl)piperidine-1-carboxamide]",+ (+ represents myosin activation value AC20 > 5 μM)
5,"Cc1ncc(NC(=O)N2CCC(C(C)(C)S(=O)(=O)c3cccc(F)c3)CC2)cn1 [Compound 141, 4-(2-((3-fluorophenyl)sulfonyl)propan-2-yl)-N-(2-methylpyrimidin-5-yl)piperidine-1-carboxamide]",+ (+ represents myosin activation value AC20 > 5 μM)
6,"C[C@](F)(C1CCN(C(=O)Nc2ccnc(C#N)c2)CC1)S(=O)(=O)c1cccc(F)c1 [Compound 293, (R)-N-(2-cyanopyridin-4-yl)-4-(1-fluoro-1-((3-fluorophenyl)sulfonyl)ethyl)piperidine-1-carboxamide]",+ (+ represents myosin activation value AC20 > 5 μM)
7,"Cn1nccc1S(=O)(=O)C1(C2CCN(C(=O)Nc3ccnnc3)CC2)CCC1 [Compound 174, 4-(1-((1-methyl-1H-pyrazol-5-yl)sulfonyl)cyclobutyl)-N-(pyridazin-4-yl)piperidine-1-carboxamide]",+++ (+++ represents myosin activation value AC20 < 2 μM)
8,"Cc1ccc(NC(=O)N2CCC(C(C)(F)S(=O)(=O)c3cn(C)nc3C(F)(F)F)CC2)cn1 (stereo not shown) [Compound 247, 4-(1-fluoro-1-((1-methyl-3-(trifluoromethyl)-1H-pyrazol-4-yl)sulfonyl)ethyl)-N-(6-methylpyridin-3-yl)piperidine-1-carboxamide]",+ (+ represents myosin activation value AC20 > 5 μM)
9,"CC(C)(C1CCN(C(=O)Nc2ccon2)CC1)S(=O)(=O)c1cccc(C#N)c1 [Compound 112, 4-(2-((3-cyanophenyl)sulfonyl)propan-2-yl)-N-(isoxazol-3-yl)piperidine-1-carboxamide]",++ (++ represents myosin activation value AC20 from 2 μM-5 μM)
10,"C[C@](F)(C1CCN(C(=O)Nc2ccc(C#N)nc2)CC1)S(=O)(=O)c1cccc(F)c1 [Compound 292, (R)-N-(6-cyanopyridin-3-yl)-4-(1-fluoro-1-((3-fluorophenyl)sulfonyl)ethyl)piperidine-1-carboxamide]",++ (++ represents myosin activation value AC20 from 2 μM-5 μM)
11,"Cn1nc(C(F)(F)F)cc1S(=O)(=O)C(C)(C)C1CCN(C(=O)Nc2ccon2)CC1 [Compound 126, N-(isoxazol-3-yl)-4-(2-((1-methyl-3-(trifluoromethyl)-1H-pyrazol-5-yl)sulfonyl)propan-2-yl)piperidine-1-carboxamide]",++ (++ represents myosin activation value AC20 from 2 μM-5 μM)
12,"CC(C)(C1CCN(C(=O)Nc2ccncc2)CC1)S(=O)(=O)c1ccccc1C#N [Compound 209, 4-(2-((2-cyanophenyl)sulfonyl)propan-2-yl)-N-(pyridin-4-yl)piperidine-1-carboxamide]",++ (++ represents myosin activation value AC20 from 2 μM-5 μM)
13,"CC(F)(C1CCN(C(=O)Cc2ccnnc2)CC1)S(=O)(=O)c1cccc(F)c1 (stereo not shown) [Compound 10, 1-(4-(1-Fluoro-1-((3-fluorophenyl)sulfonyl)ethyl)piperidin-1-yl)-2-(pyridazin-4-yl)ethan-1-one]",+ (+ represents myosin activation value AC20 > 5 μM)
14,"Cc1cc(NC(=O)N2CCC(C(C)(C)S(=O)(=O)c3cn(C)nc3C(F)F)CC2)cnn1 [Compound 154, 4-(2-((3-(difluoromethyl)-1-methyl-1H-pyrazol-4-yl)sulfonyl)propan-2-yl)-N-(6-methylpyridazin-4-yl)piperidine-1-carboxamide]",+ (+ represents myosin activation value AC20 > 5 μM)
15,"Cc1ccccc1S(=O)(=O)C(C)(C)C1CCN(C(=O)Nc2ccncc2)CC1 [Compound 212, N-(pyridin-4-yl)-4-(2-(o-tolylsulfonyl)propan-2-yl)piperidine-1-carboxamide]",+++ (+++ represents myosin activation value AC20 < 2 μM)
16,"Cn1nc(C(F)(F)F)cc1S(=O)(=O)C(C)(C)C1CCN(C(=O)Nc2ccnc(F)c2)CC1 [Compound 127, N-(2-fluoropyridin-4-yl)-4-(2-((1-methyl-3-(trifluoromethyl)-1H-pyrazol-5-yl)sulfonyl)propan-2-yl)piperidine-1-carboxamide]",++ (++ represents myosin activation value AC20 from 2 μM-5 μM)
17,"O=C(Nc1ccncc1)N1CCC(CS(=O)(=O)c2cccc(F)c2)CC1 [Compound 33, 4-(((3-fluorophenyl)sulfonyl)methyl)-N-(pyridin-4-yl)piperidine-1-carboxamide]",+ (+ represents myosin activation value AC20 > 5 μM)
18,"Cc1cc(NC(=O)N2CCC(C(C)(C)S(=O)(=O)c3cccc(F)c3)CC2)no1 [Compound 142, 4-(2-((3-fluorophenyl)sulfonyl)propan-2-yl)-N-(5-methylisoxazol-3-yl)piperidine-1-carboxamide]",+ (+ represents myosin activation value AC20 > 5 μM)
19,"Cc1cc(S(=O)(=O)C(C)(C)C2CCN(C(=O)Nc3ccncc3)CC2)n(C)n1 [Compound 186, 4-(2-((1,3-dimethyl-1H-pyrazol-5-yl)sulfonyl)propan-2-yl)-N-(pyridin-4-yl)piperidine-1-carboxamide]",+++ (+++ represents myosin activation value AC20 < 2 μM)
20,"Cn1nc(C(F)F)cc1S(=O)(=O)C(C)(C)C1CCN(C(=O)Nc2ccc(F)nc2)CC1 [Compound 106, 4-(2-((3-(difluoromethyl)-1-methyl-1H-pyrazol-5-yl)sulfonyl)propan-2-yl)-N-(6-fluoropyridin-3-yl)piperidine-1-carboxamide]",++ (++ represents myosin activation value AC20 from 2 μM-5 μM)
21,"CC(F)(C1CCN(C(=O)Nc2ccno2)CC1)S(=O)(=O)c1cccc(F)c1 (stereo not shown) [Compound 11, 4-(1-Fluoro-1-((3-fluorophenyl)sulfonyl)ethyl)-N-(isoxazol-5-yl)piperidine-1-carboxamide]",++ (++ represents myosin activation value AC20 from 2 μM-5 μM)
22,"O=C(Nc1ccnnc1)N1CCC(C2(S(=O)(=O)c3cc(F)cc(F)c3)CCC2)CC1 [Compound 167, 4-(1-((3,5-difluorophenyl)sulfonyl)cyclobutyl)-N-(pyridazin-4-yl)piperidine-1-carboxamide]",+++ (+++ represents myosin activation value AC20 < 2 μM)
23,"Cn1cc(S(=O)(=O)C(C)(C)C2CCN(C(=O)Nc3ccc(F)nc3)CC2)c(C(F)(F)F)n1 [Compound 111, N-(6-fluoropyridin-3-yl)-4-(2-((1-methyl-3-(trifluoromethyl)-1H-pyrazol-4-yl)sulfonyl)propan-2-yl)piperidine-1-carboxamide]",++ (++ represents myosin activation value AC20 from 2 μM-5 μM)
24,"Cn1ncc2c(S(=O)(=O)C(F)(F)C3CCN(C(=O)Nc4ccnnc4)CC3)cccc21 [Compound 66, 4-(difluoro((1-methyl-1H-indazol-4-yl)sulfonyl)methyl)-N-(pyridazin-4-yl)piperidine-1-carboxamide]",++ (++ represents myosin activation value AC20 from 2 μM-5 μM)
25,"CC(F)(C1CCN(C(=O)Nc2ccnnc2)CC1)S(=O)(=O)c1ccccc1Cl (stereo not shown) [Compound 263, 4-(1-((2-chlorophenyl)sulfonyl)-1-fluoroethyl)-N-(pyridazin-4-yl)piperidine-1-carboxamide]",+++ (+++ represents myosin activation value AC20 < 2 μM)
